Laboratory results reported in US8198273B2, “Compounds and methods for kinase modulation, and indications therefor” (Plexxikon Inc., priority 2009, dated 2012).

Tests used:
CYP3A4(BQ) = CYP3A4(BQ) (Homo sapiens, UniProt P08684); assay: CYP3A4(BQ) inhibition (fluorescent substrate); assay type: in vitro ADME; conditions: read-out: Cyp IC50 3A4(BQ)
Method in brief: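 Inhibition was followed as loss of fluorescent metabolite from a known substrate, with compound in co-factor mix as a 10-point 1:1 serial dilution (100 mM DMSO stock).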

B-Raf = B-Raf (Homo sapiens, UniProt P15056); assay: B-Raf biochemical kinase inhibition (AlphaScreen, biotin-MEK1 substrate); conditions: 100 μM ATP
Chain of B-Raf (P15056 whole entry): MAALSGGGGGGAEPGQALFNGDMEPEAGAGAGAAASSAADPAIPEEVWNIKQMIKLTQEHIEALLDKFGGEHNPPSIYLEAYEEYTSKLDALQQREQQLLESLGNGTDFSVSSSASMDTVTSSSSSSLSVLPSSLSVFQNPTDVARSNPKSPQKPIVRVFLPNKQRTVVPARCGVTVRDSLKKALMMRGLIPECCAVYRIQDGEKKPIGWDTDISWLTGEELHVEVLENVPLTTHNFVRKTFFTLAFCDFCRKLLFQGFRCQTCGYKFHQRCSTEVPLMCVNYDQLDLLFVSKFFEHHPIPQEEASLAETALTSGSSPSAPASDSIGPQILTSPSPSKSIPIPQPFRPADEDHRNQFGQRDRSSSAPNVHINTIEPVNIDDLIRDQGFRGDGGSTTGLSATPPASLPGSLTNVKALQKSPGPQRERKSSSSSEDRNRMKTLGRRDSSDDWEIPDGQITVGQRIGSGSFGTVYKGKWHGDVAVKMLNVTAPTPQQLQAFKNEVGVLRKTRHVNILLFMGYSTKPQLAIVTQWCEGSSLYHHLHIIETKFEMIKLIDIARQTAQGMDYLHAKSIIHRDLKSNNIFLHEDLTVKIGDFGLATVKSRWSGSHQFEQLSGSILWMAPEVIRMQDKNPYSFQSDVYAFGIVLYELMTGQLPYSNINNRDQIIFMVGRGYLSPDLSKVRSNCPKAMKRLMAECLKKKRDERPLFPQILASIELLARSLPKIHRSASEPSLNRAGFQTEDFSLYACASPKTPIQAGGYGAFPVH
Method in brief: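 Raf kinases phosphorylating biotin-MEK1, reaction started with ATP at 100 μM final. Compounds tested at 8 points by serial dilution from a 0.1 mM DMSO stock.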

[1] = Relative solubility by turbidity in aqueous buffers of varying pH; assay type: physicochemical; conditions: for turbidity threshold (L, M, H) 7.4: HEPES pH 7.4; for turbidity threshold (L, M, H) 4.5: SIF pH 4.5; for turbidity threshold (L, M, H) 6.8: SIF pH 6.8; for turbidity threshold (L, M, H) 1.4: buffer pH 1.4 (SGF)
Method in brief: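 Turbidity endpoint: concentration where optical density at 490, 535 and 650 nm exceeds 0.01, three-wavelength average used. Buffers at pH 1.5, 4.5, 6.8 and 7.4; DMSO serial dilutions of 25 mM stock spiked 1 μL into 99 μL buffer. Low <31.3, moderate 31.3–250, high >250 μM.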

CYP2C9 = CYP2C9 (Homo sapiens, UniProt P11712); assay: CYP2C9 inhibition (fluorescent substrate); assay type: in vitro ADME; conditions: CYP2C9, MFC substrate; read-out: Cyp IC50 2C9
Chain of CYP2C9 (P11712 whole entry): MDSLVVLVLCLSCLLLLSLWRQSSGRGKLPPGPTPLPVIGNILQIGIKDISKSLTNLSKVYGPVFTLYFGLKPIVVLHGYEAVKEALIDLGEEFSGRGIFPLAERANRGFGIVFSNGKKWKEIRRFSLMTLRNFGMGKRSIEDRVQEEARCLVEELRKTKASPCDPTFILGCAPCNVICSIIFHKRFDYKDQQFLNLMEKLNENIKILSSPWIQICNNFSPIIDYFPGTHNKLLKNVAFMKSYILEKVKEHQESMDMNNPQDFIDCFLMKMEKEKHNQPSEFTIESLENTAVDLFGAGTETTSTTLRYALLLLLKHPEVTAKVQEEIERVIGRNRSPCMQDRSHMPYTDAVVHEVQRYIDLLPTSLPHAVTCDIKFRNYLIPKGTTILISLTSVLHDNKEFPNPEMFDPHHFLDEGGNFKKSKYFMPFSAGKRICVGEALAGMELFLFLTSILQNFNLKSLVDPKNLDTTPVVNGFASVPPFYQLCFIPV
Method in brief: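 Human CYP activity was followed by the fluorescence of the metabolized product of a known substrate, which falls as metabolism is inhibited. Compounds from 100 mM DMSO stocks were serially diluted 1:1 over 10 points in co-factor mix and preincubated 10 min at 37 °C. IC50 was fitted from signal versus concentration.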

Chain of CYP3A4(BQ) (P08684 whole entry): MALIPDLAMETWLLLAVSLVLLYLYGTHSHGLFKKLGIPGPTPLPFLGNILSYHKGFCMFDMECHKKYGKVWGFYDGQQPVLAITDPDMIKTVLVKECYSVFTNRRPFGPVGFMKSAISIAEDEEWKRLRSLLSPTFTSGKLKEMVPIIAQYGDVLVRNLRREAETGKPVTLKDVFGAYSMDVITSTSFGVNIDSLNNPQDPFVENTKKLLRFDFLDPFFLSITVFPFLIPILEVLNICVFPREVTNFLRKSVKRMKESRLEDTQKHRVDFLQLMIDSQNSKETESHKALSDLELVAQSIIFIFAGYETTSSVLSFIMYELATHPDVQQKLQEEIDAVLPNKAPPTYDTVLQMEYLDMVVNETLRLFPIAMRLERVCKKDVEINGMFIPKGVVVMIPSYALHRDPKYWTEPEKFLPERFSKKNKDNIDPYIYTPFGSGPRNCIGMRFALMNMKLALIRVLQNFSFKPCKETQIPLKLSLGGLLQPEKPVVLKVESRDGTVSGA

## CCCS(=O)(=O)Nc1ccc(F)c(C(=O)c2c[nH]c3ncc(C#CCOC)cc23)c1F [P-2239, Propane-1-sulfonic acid {2,4-difluoro-3-[5-(3-methoxy-prop-1-ynyl)-1H-pyrrolo[2,3-b]pyridine-3-carbonyl]-phenyl}-amide]
CYP3A4(BQ)
  IC50: 5 to 10 µM
B-Raf
  IC50: < 0.1 µM
[1]
  turbidity threshold (L, M, H) 7.4: M (moderate solubility if the threshold concentration is 31.3 μM to 250 μM)
  turbidity threshold (L, M, H) 4.5: M (moderate solubility if the threshold concentration is 31.3 μM to 250 μM)
  turbidity threshold (L, M, H) 6.8: L (low solubility if the threshold concentration is <31.3 04)
  turbidity threshold (L, M, H) 1.4: L (low solubility if the threshold concentration is <31.3 04)
CYP2C9
  IC50: 5 to 10 µM

## C#Cc1cnc2[nH]cc(C(=O)c3c(F)ccc(NS(=O)(=O)CCC)c3F)c2c1 [P-2260, Propane-1-sulfonic acid [3-(5-ethynyl-1H-pyrrolo[2,3-b]pyridine-3-carbonyl)-2,4-difluoro-phenyl]-amide]
CYP3A4(BQ)
  IC50: 5 to 10 µM
B-Raf
  IC50: < 0.01 µM
[1]
  turbidity threshold (L, M, H) 7.4: L (low solubility if the threshold concentration is <31.3 04)
  turbidity threshold (L, M, H) 4.5: L (low solubility if the threshold concentration is <31.3 04)
  turbidity threshold (L, M, H) 6.8: L (low solubility if the threshold concentration is <31.3 04)
  turbidity threshold (L, M, H) 1.4: L (low solubility if the threshold concentration is <31.3 04)
CYP2C9
  IC50: 5 to 10 µM

## CCCS(=O)(=O)Nc1cccc(C(=O)c2c[nH]c3ncc(-c4cnc(OC)nc4)cc23)c1F [P-2407, Propane-1-sulfonic acid {2-fluoro-3-[5-(2-methoxy-pyrimidin-5-yl)-1H-pyrrolo[2,3-b]pyridine-3-carbonyl]-phenyl}-amide]
CYP3A4(BQ)
  IC50: > 10 µM
B-Raf
  IC50: < 0.1 µM
[1]
  turbidity threshold (L, M, H) 7.4: L (low solubility if the threshold concentration is <31.3 04)
  turbidity threshold (L, M, H) 4.5: L (low solubility if the threshold concentration is <31.3 04)
  turbidity threshold (L, M, H) 6.8: L (low solubility if the threshold concentration is <31.3 04)
  turbidity threshold (L, M, H) 1.4: L (low solubility if the threshold concentration is <31.3 04)
CYP2C9
  IC50: > 10 µM

## CCCS(=O)(=O)Nc1cccc(C(=O)c2c[nH]c3ncc(-c4cnc(N(C)C)nc4)cc23)c1F [P-2408, Propane-1-sulfonic acid {3-[5-(2-dimethylamino-pyrimidin-5-yl)-1H-pyrrolo[2,3-b]pyridine-3-carbonyl]-2-fluoro-phenyl}-amide]
CYP3A4(BQ)
  IC50: > 10 µM
B-Raf
  IC50: < 0.01 µM
[1]
  turbidity threshold (L, M, H) 7.4: L (low solubility if the threshold concentration is <31.3 04)
  turbidity threshold (L, M, H) 4.5: L (low solubility if the threshold concentration is <31.3 04)
  turbidity threshold (L, M, H) 6.8: L (low solubility if the threshold concentration is <31.3 04)
  turbidity threshold (L, M, H) 1.4: L (low solubility if the threshold concentration is <31.3 04)
CYP2C9
  IC50: 5 to 10 µM
